Holding throughout (assay): Bliss excess, mean over the matrix (fraction); higher = more synergy
Assay [1] deals with AMO-1 (Plasma Cell Myeloma). The method in brief:
(§1)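 Cell lines in DMEM/F12 or RPMI with 10% FBS were plated in 1536-well plates, held 24 hours at 37°C, 5% CO2, then given two-drug dose matrices for 72 hours (DMSO typically 0.2%). Viability was read by CellTiter-Glo 2.0 luminescence and scaled as inhibition from 0 (vehicle wells) to 1 (blank wells). Combination Emax is the second-highest inhibition in the matrix; Bliss excess is observed combination effect minus expected EA + EB − EA·EB, EA and EB being single-agent effects.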

In assay [2] the test system is BT-549 (Breast Carcinoma). The method in brief:
as §1

The test system of assay [3] is C-4-I (Cervical Carcinoma). In a few lines:
as §1

Another assay deals with D-263MG (Glioblastoma). In a few lines:
as §1

The subject of assay [4] is EFM-19 (Breast Carcinoma). In a few lines:
as §1

Assay [5] concerns HSC-4 (Oral Cavity Carcinoma). The method in brief:
as §1

Assay [6] has as its system Hs-766T (Pancreatic Carcinoma). The method in brief:
as §1

Assay [7] has as its system KARPAS-299 (T-Cell Non-Hodgkin's Lymphoma). The method in brief: as §1
Assay [8] concerns KYSE-450 (Esophageal Squamous Cell Carcinoma). In a few lines: as §1
The test system of assay [9] is LU-65 (Non-Small Cell Lung Carcinoma). The method in brief: as §1
For assay [10], the system named is MLMA (Other Blood Carcinomas). The method in brief:
as §1

In assay [11] the test system is NCI-H1915 (Non-Small Cell Lung Carcinoma). In a few lines:
as §1

Assay [12] concerns NCI-H727 (Other Solid Carcinomas). In a few lines: as §1
Assay [13] has as its system OE19 (Esophageal Adenocarcinoma). The method in brief: as §1
For assay [14], the system named is OSC-20 (Oral Cavity Carcinoma). In a few lines:
as §1

The test system of assay [15] is OVCAR-4 (Ovarian Carcinoma). In a few lines:
as §1

In assay [16] the test system is SCC-15 (Oral Cavity Carcinoma). The method in brief:
as §1

Assay [17] has as its system SW13 (Other Solid Carcinomas). The method in brief: as §1
A further assay relates to TGW (Neuroblastoma). In a few lines: as §1
The subject of the next assay is UACC-62 (Melanoma). The method in brief:
as §1

For the compound `C=CCn1c(=O)c2cnc(Nc3ccc(N4CCN(C)CC4)cc3)nc2n1-c1cccc(C(C)(C)O)n1` [AZD1775] + O=C(c1cc(Cc2n[nH]c(=O)c3ccccc23)ccc1F)N1CCN(C(=O)C2CC2)CC1 [Olaparib] (first compound max 1 µM, partner max 10 µM), the Bliss excess in [1] is -0.0631; in assay [2], -0.0528; in assay [3], 0.0103; with D-263MG (Glioblastoma) it was -0.0366; in assay [4], -0.0456; in [5], -0.0337. Moreover, the Bliss excess is 0.0002 in [6]; -0.0605 in assay [7]; -0.0897 in [8]; -0.0598 in [9]; -0.0914 in assay [10]; -0.0223 in [11]. The Bliss excess in [12] is -0.0055; in assay [13] it was -0.0561; in [14], -0.0205; in [15], 0.0249; in [16] it was -0.043; in [17], -0.0137. Further, the Bliss excess with TGW (Neuroblastoma) is -0.0383; in the assay with UACC-62 (Melanoma), -0.0207.

With `Cc1c2c(nn1C)CSCc1cc(n(C)n1)CSc1cc(c3ccccc3c1)OCCCc1c(C(=O)O)n(C)c3c-2c(Cl)ccc13` [AZD5991] + C[C@@H]1COCCN1C2=NC(=NC(=C2)C3(CC3)[S@](=N)(=O)C)C4=C5C=CNC5=NC=C4 [AZD6738] (first compound max 1 µM, 7x7, partner max 10 µM), the Bliss excess in assay [1] is 0.0055; in assay [2], 0.0869; in assay [3], 0.0416; in the assay with D-263MG (Glioblastoma), -0.0023; in assay [4], 0.0543; in assay [5] it was -0.0403. The Bliss excess in [6] was 0.0201; in [7] it was 0.0002; in assay [8], 0.0407; in assay [9], -0.0405; in [10] it was -0.0392; in [11], 0.0212. The Bliss excess is 0.025 in [12]; 0.0592 in assay [14]; -0.0472 in assay [15]; 0.0506 in [16]; 0.0363 in assay [17]; 0.0167 in the assay on TGW (Neuroblastoma). Further, the Bliss excess in the assay on UACC-62 (Melanoma) came to 0.0478.

For the compound `Cc1c2c(nn1C)CSCc1cc(n(C)n1)CSc1cc(c3ccccc3c1)OCCCc1c(C(=O)O)n(C)c3c-2c(Cl)ccc13` [AZD5991] + C[C@@H](Nc1cc(F)cc(F)c1)c1cc(C(=O)N(C)C)cc2c(=O)cc(N3CCOCC3)oc12 [AZD8186] (first compound max 1 µM, 7x7, partner max 3 µM), the Bliss excess in assay [1] was 0.0522; in assay [2], 0.0621; in assay [3], 0.0655; in the assay on D-263MG (Glioblastoma) it was 0.0849; in assay [4] it was -0.0123; in assay [5], -0.063. Also, the Bliss excess was -0.111 in assay [6]; 0.0185 in assay [7]; -0.0428 in assay [9]; 0.0282 in [10]; -0.0265 in [11]; 0.0239 in assay [12]. The Bliss excess in assay [13] was 0.043; in assay [14], -0.0335; in [15] it was 0.0433; in assay [16], 0.0139; in [17], 0.0293; with TGW (Neuroblastoma) it was -0.0155. Also, in the assay on UACC-62 (Melanoma), the Bliss excess was 0.036.

For `Cc1c2c(nn1C)CSCc1cc(n(C)n1)CSc1cc(c3ccccc3c1)OCCCc1c(C(=O)O)n(C)c3c-2c(Cl)ccc13` [AZD5991] + Cn1cnc2c(F)c(Nc3ccc(Br)cc3Cl)c(C(=O)NOCCO)cc21 [Selumetinib] (first compound max 1 µM, 7x7, partner max 3 µM), the Bliss excess is 0.0129 in [1]; 0.0056 in assay [2]; 0.132 in assay [3]; -0.0318 in the assay on D-263MG (Glioblastoma); -0.0175 in assay [5]; -0.0859 in assay [6]. The Bliss excess in assay [7] amounted to 0.0496; in [8], 0.0036; in [9], 0.03; in assay [10] it was 0.0463; in [11], 0.0375; in assay [12] it was 0.0213. The Bliss excess in assay [13] was 0.0051; in assay [14], 0.0146; in [15], 0.0473; in assay [16], 0.0241; in assay [17], -0.0006; in the assay on TGW (Neuroblastoma) it was 0.0029. In addition, the Bliss excess with UACC-62 (Melanoma) is -0.0465.

In the case of `CS(=O)(=O)CCNCc1ccc(-c2ccc3ncnc(Nc4ccc(OCc5cccc(F)c5)c(Cl)c4)c3c2)o1` [Lapatinib] + NC1(c2ccc(-c3nc4ccn5c(=O)[nH]nc5c4cc3-c3ccccc3)cc2)CCC1 [MK-2206] (first compound max 10 µM, 7x7, partner max 10 µM), the Bliss excess was -0.048 in assay [1]; -0.0275 in assay [2]; -0.0222 in the assay with D-263MG (Glioblastoma); 0.0455 in [4]; 0.0003 in assay [5]; -0.0629 in [6]. For the same compound, the Bliss excess in [7] is 0.0874; in [8], -0.022; in [9], 0.0099; in assay [10], -0.093; in assay [12], 0.0172; in assay [17], -0.0229. Also, the Bliss excess with TGW (Neuroblastoma) was -0.0033; in the assay on UACC-62 (Melanoma) it was 0.0426.

In the case of `CCc1c2c(nc3ccc(O)cc13)-c1cc3c(c(=O)n1C2)COC(=O)[C@]3(O)CC` [SN-38] + O=C(c1cc(Cc2n[nH]c(=O)c3ccccc23)ccc1F)N1CCN(C(=O)C2CC2)CC1 [Olaparib] (first compound max 0.3 µM, 7x7, partner max 10 µM), the Bliss excess in [1] worked out at 0.0023; in assay [2], 0.0589; in assay [3] it was 0.055; in the assay on D-263MG (Glioblastoma) it was 0.0617; in assay [4] it was 0.0496; in assay [6], 0. Moreover, the Bliss excess in assay [7] is 0.0404; in assay [8], 0.0808; in [9], 0.0282; in [10], 0.038; in assay [12], -0.0075; in assay [13] it was 0.0026. The Bliss excess in [14] is -0.0034; in [15], -0.0234; in assay [17], 0.0364; in the assay on TGW (Neuroblastoma) it was 0.06; in the assay with UACC-62 (Melanoma) it was 0.0203.

Take `CC1(C)CCC(CN2CCN(c3ccc(C(=O)NS(=O)(=O)c4ccc(NCC5CCOCC5)c([N+](=O)[O-])c4)c(Oc4cnc5[nH]ccc5c4)c3)CC2)=C(c2ccc(Cl)cc2)C1` [Venetoclax] + CS(=O)(=O)CCNCc1ccc(-c2ccc3ncnc(Nc4ccc(OCc5cccc(F)c5)c(Cl)c4)c3c2)o1 [Lapatinib] (first compound max 1 µM, 7x7, partner max 10 µM): the Bliss excess was 0.0614 in assay [1]; -0.0573 in [2]; -0.0669 in the assay on D-263MG (Glioblastoma); -0.002 in [4]; -0.0636 in assay [6]; 0.0202 in [7]. For the same compound, the Bliss excess in [8] is -0.0413; in assay [9] it was 0.0159; in assay [10], -0.0329; in [12], -0.012; in assay [17], -0.0672; with TGW (Neuroblastoma) it was -0.0223. Further, the Bliss excess in the assay on UACC-62 (Melanoma) is -0.0044.

(Values after the supplement of paper PMC11061612.)
